Data taken from patent US20220162191A1, “SMALL MOLECULE MODULATORS OF IL-17” (LEO PHARMA A/S, priority 2019, published 2022).
pEC50: −log10 of the molar value.

molecular target: T1, human IL-17AA (Homo sapiens, UniProt Q16552); assay: IL-8 release assay in human epithelial keratinocytes adult (HEKa); assay type: cell-based; conditions: 3 ng/ml human IL-17AA + 10 ng/ml human TNFalpha, 68-72 h, IL-8 by HTRF, read-out: Rel EC50 L-8 release assay
T1 construct: host or cells: HEK (human embryonic kidney) cells
T1 sequence (Q16552 24-155) 1: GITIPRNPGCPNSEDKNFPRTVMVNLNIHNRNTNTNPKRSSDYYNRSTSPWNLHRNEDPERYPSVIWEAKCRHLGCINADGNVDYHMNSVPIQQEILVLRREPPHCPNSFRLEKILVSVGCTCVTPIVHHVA
T1 sequence (Q16552 24-155) 2: T1 sequence (Q16552 24-155) 1
Method in brief: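 IL-8 secretion, quantified by HTRF (665/620 nm) as percent of controls, served as the readout after 68–72 h culture of HEKa cells with compound plus IL-17AA (3 ng/ml final) and TNF-alpha (10 ng/ml final). Four-parameter logistic curves gave relative IC50 and Emax.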

Row | pEC50 | Structure (SMILES)
1 | 6.00 to 7.00 | Cn1cncc1-c1ccc(NC(=O)C(Cc2cc(-c3ccnc(N4CC[C@@H](CO)C4)c3)ccc2Cl)NC(=O)c2ccnn2C)cc1 (stereo partly drawn) [Example 186, N-[1-[[2-chloro-5-[2-[(3R)-3-(hydroxymethyl)pyrrolidin-1-yl]-4-pyridyl]phenyl]methyl]-2-[4-(3-methylimidazol-4-yl)anilino]-2-oxo-ethyl]-2-methyl-pyrazole-3-carboxamide]
2 | < 6.00 | Cc1cnn(C)c1-c1ccc(NC(=O)[C@H](Cc2cc(-c3ccc(=O)n(C(C)C)c3)ccc2Cl)NC(=O)C2CCC2)cc1 [Example 325, N-[(1S)-1-[[2-chloro-5-(1-isopropyl-6-oxo-3-pyridyl)phenyl]methyl]-2-[4-(2,4-dimethylpyrazol-3-yl)anilino]-2-oxo-ethyl]cyclobutanecarboxamide]
3 | < 6.00 | Cc1nccn1-c1ccc(NC(=O)C(Cc2cc(-c3ccc(=O)n(C(C)C)c3)ccc2Cl)NC(=O)c2ccnn2C)cc1 (stereo not drawn) [Example 68, N-[1-[[2-chloro-5-(1-isopropyl-6-oxo-3-pyridyl)phenyl]methyl]-2-[4-(2-methylimidazol-1-yl)anilino]-2-oxo-ethyl]-2-methyl-pyrazole-3-carboxamide]
4 | < 6.00 | Cc1nncn1-c1ccc(NC(=O)C(Cc2cc(-c3ccc(=O)n(C(C)C)c3)ccc2Cl)NC(=O)c2ccnn2C)cc1 (stereo not drawn) [Example 77, N-[1-[[2-chloro-5-(1-isopropyl-6-oxo-3-pyridyl)phenyl]methyl]-2-[4-(3-methyl-1,2,4-triazol-4-yl)anilino]-2-oxo-ethyl]-2-methyl-pyrazole-3-carboxamide]
5 | 6.00 to 7.00 | CC(C)n1cc(-c2ccc(Cl)c(C[C@H](NC(=O)C3(F)CC3)C(=O)Nc3ccc(-c4cncn4C)cc3)c2)ccc1=O [Example 104, N-[(1S)-1-[[2-chloro-5-(1-isopropyl-6-oxo-3-pyridyl)phenyl]methyl]-2-[4-(3-methylimidazol-4-yl)anilino]-2-oxo-ethyl]-1-fluoro-cyclopropanecarboxamide]
6 | 6.00 to 7.00 | Cc1n[nH]c(C)c1-c1ccc(NC(=O)[C@@H](NC(=O)c2ccnn2C)[C@@H]2CCc3ccc(-n4cnc(C(C)C)c4)cc32)cc1 [Example 361, N-[(1S)-2-[4-(3,5-dimethyl-1H-pyrazol-4-yl)anilino]-1-[(1R)-6-(4-isopropylimidazol-1-yl)indan-1-yl]-2-oxo-ethyl]-2-methyl-pyrazole-3-carboxamide]
7 | 6.00 to 7.00 | Cc1n[nH]c(C)c1-c1ccc(NC(=O)[C@@H](NC(=O)OC2CC2)[C@@H]2CCc3ccc(-c4cc(N5C[C@@H]6C[C@H]5CO6)ncn4)cc32)cc1 [Example 374, cyclopropyl N-[(1S)-2-[4-(3,5-dimethyl-1H-pyrazol-4-yl)anilino]-1-[(1R)-6-[6-[(1S,4S)-2-oxa-5-azabicyclo[2.2.1]heptan-5-yl]pyrimidin-4-yl]indan-1-yl]-2-oxo-ethyl]carbamate]
8 | > 7.00 | Cc1n[nH]c(C)c1-c1ccc(NC(=O)[C@@H](NC(=O)c2ccnn2C)[C@@H]2CCc3ccc(-c4ccc5c(c4)CNC5)cc32)cc1 [Example 1, N-[(1S)-2-[4-(3,5-dimethyl-1H-pyrazol-4-yl)anilino]-1-[(1R)-6-isoindolin-5-ylindan-1-yl]-2-oxo-ethyl]-2-methyl-pyrazole-3-carboxamide]
9 | 6.00 to 7.00 | CCCCn1cc(-c2ccc(Cl)c(C[C@H](NC(=O)c3ccnn3C)C(=O)Nc3ccc(-c4cncn4C)cc3)c2)cn1 [Example 171]
10 | 6.00 to 7.00 | CC(C)n1cc(-c2ccc(Cl)c(C[C@H](NC(=O)OC(C)(C)C)C(=O)Nc3ccc(-c4cncn4C)c(F)c3)c2)ccc1=O [Example 134, tert-butyl N-[(1S)-1-[[2-chloro-5-(1-isopropyl-6-oxo-3-pyridyl)phenyl]methyl]-2-[3-fluoro-4-(3-methylimidazol-4-yl)anilino]-2-oxo-ethyl]carbamate]
11 | > 7.00 | Cc1n[nH]c(C)c1-c1ccc(NC(=O)[C@@H](NC(=O)c2ccnn2C)[C@@H]2CCc3ccc(-c4ccc5c(c4)CN(C)C5)cc32)cc1 [Example 10, N-[(1S)-2-[4-(3,5-dimethyl-1H-pyrazol-4-yl)anilino]-1-[(1R)-6-(2-methylisoindolin-5-yl)indan-1-yl]-2-oxo-ethyl]-2-methyl-pyrazole-3-carboxamide]
12 | 6.00 to 7.00 | Cc1cnn(C)c1-c1ccc(NC(=O)[C@H](Cc2cc(-c3ccc(=O)n(C(C)C)c3)ccc2Cl)NC(=O)CC2CCC2)cc1 [Example 335, (2S)-3-[2-chloro-5-(1-isopropyl-6-oxo-3-pyridyl)phenyl]-2-[(2-cyclobutylacetyl)amino]-N-[4-(2,4-dimethylpyrazol-3-yl)phenyl]propanamide]
13 | < 6.00 | Cc1n[nH]cc1-c1ccc(NC(=O)C(NC(=O)c2ccnn2C)C(c2ccccc2)c2cccc(-c3ccc(=O)n(C(C)C)c3)c2)cc1 (single isomer, unassigned; diastereomer 3) [Example 237, N-[1-[[3-(1-isopropyl-6-oxo-3-pyridyl)phenyl]-phenyl-methyl]-2-[4-(3-methyl-1H-pyrazol-4-yl)anilino]-2-oxo-ethyl]-2-methyl-pyrazole-3-carboxamide (Diastereomer 3)]
14 | < 6.00 | CC(C)n1cc(-c2ccc(Cl)c(C[C@H](NC(=O)C3(F)CC3)C(=O)Nc3ccc(-c4nncn4C)cc3)c2)ccc1=O [Example 92, N-[(1S)-1-[[2-chloro-5-(1-isopropyl-6-oxo-3-pyridyl)phenyl]methyl]-2-[4-(4-methyl-1,2,4-triazol-3-yl)anilino]-2-oxo-ethyl]-1-fluoro-cyclopropanecarboxamide]
15 | 6.00 to 7.00 | CC(C)n1cc(-c2ccc(Cl)c(CC(NC(=O)c3conc3C(C)(C)C)C(=O)Nc3ccc(-c4nncn4C)cc3)c2)ccc1=O (stereo not drawn) [Example 96, 3-tert-butyl-N-[1-[[2-chloro-5-(1-isopropyl-6-oxo-3-pyridyl)phenyl]methyl]-2-[4-(4-methyl-1,2,4-triazol-3-yl)anilino]-2-oxo-ethyl]isoxazole-4-carboxamide]
16 | 6.00 to 7.00 | Cc1n[nH]c(C)c1-c1ccc(NC(=O)[C@H](Cc2cc(-c3ccc(CN4C[C@@H]5C[C@H]4CN5)cc3)ccc2Cl)NC(=O)C2(F)CC2)cc1 [Example 229, N-[(1S)-1-[[2-chloro-5-[4-[[(1S,4S)-2,5-diazabicyclo[2.2.1]heptan-2-yl]methyl]phenyl]phenyl]methyl]-2-[4-(3,5-dimethyl-1H-pyrazol-4-yl)anilino]-2-oxo-ethyl]-1-fluoro-cyclopropanecarboxamide]
17 | 6.00 to 7.00 | CC(C)n1cc(-c2ccc(Cl)c(C[C@H](NC(=O)c3ccnn3C)C(=O)Nc3ccc(-c4cncn4C)c(F)c3)c2)ccc1=O [Example 135, N-[(1S)-1-[[2-chloro-5-(1-isopropyl-6-oxo-3-pyridyl)phenyl]methyl]-2-[3-fluoro-4-(3-methylimidazol-4-yl)anilino]-2-oxo-ethyl]-2-methyl-pyrazole-3-carboxamide]
18 | 6.00 to 7.00 | Cc1[nH]ncc1-c1ccc(NC(=O)C(Cc2cc(-c3ccc(=O)n(C(C)C)c3)ccc2Cl)NC(=O)OC(C)(C)C)cc1 (stereo not drawn) [Example 90, tert-butyl N-[1-[[2-chloro-5-(1-isopropyl-6-oxo-3-pyridyl)phenyl]methyl]-2-[4-(5-methyl-1H-pyrazol-4-yl)anilino]-2-oxo-ethyl]carbamate]
19 | 6.00 to 7.00 | Cn1cncc1-c1ccc(NC(=O)C(Cc2cc(-c3ccnc(OC(F)F)c3)ccc2Cl)NC(=O)c2ccnn2C)cc1 (stereo not drawn) [Example 161, N-[1-[[2-chloro-5-[2-(difluoromethoxy)-4-pyridyl]phenyl]methyl]-2-[4-(3-methylimidazol-4-yl)anilino]-2-oxo-ethyl]-2-methyl-pyrazole-3-carboxamide]
20 | < 6.00 | CC(C)n1cc(-c2ccc(Cl)c(CC(NC(=O)c3ccnn3C)C(=O)Nc3ccc(-c4ncnn4C)cc3)c2)ccc1=O (stereo not drawn) [Example 301, N-[1-[[2-chloro-5-(1-isopropyl-6-oxo-3-pyridyl)phenyl]methyl]-2-[4-(2-methyl-1,2,4-triazol-3-yl)anilino]-2-oxo-ethyl]-2-methyl-pyrazole-3-carboxamide]
21 | < 6.00 | CC(C)c1cc(-c2ccc(Cl)c(CC(NC(=O)c3ccnn3C)C(=O)Nc3ccc(-c4nncn4C)cc3)c2)ccn1 (stereo not drawn) [Example 75, N-[1-[[2-chloro-5-(2-isopropyl-4-pyridyl)phenyl]methyl]-2-[4-(4-methyl-1,2,4-triazol-3-yl)anilino]-2-oxo-ethyl]-2-methyl-pyrazole-3-carboxamide]
22 | > 7.00 | Cc1n[nH]c(C)c1-c1ccc(NC(=O)[C@@H](NC(=O)C2(F)CC2)[C@@H]2CCc3ccc(-c4ccc(=O)n(C(C)C)c4)cc32)cc1 [Example 7, N-[(1S)-2-[4-(3,5-dimethyl-1H-pyrazol-4-yl)anilino]-1-[(1R)-6-(1-isopropyl-6-oxo-3-pyridyl)indan-1-yl]-2-oxo-ethyl]-1-fluoro-cyclopropanecarboxamide]
23 | 6.00 to 7.00 | Cc1nocc1C(=O)NC(Cc1cc(-c2ccc(=O)n(C(C)C)c2)ccc1Cl)C(=O)Nc1ccc(-c2cn[nH]c2)cc1 (stereo not drawn) [Example 80, N-[1-[[2-chloro-5-(1-isopropyl-6-oxo-3-pyridyl)phenyl]methyl]-2-oxo-2-[4-(1H-pyrazol-4-yl)anilino]ethyl]-3-methyl-isoxazole-4-carboxamide]
24 | > 7.00 | Cc1n[nH]c(C)c1-c1ccc(NC(=O)[C@H](Cc2cc(-c3cccc(CN(C)C)c3)ccc2Cl)NC(=O)c2ccnn2C)cc1 [Example 60, N-[(1S)-1-[[2-chloro-5-[3-[(dimethylamino)methyl]phenyl]phenyl]methyl]-2-[4-(3,5-dimethyl-1H-pyrazol-4-yl)anilino]-2-oxo-ethyl]-2-methyl-pyrazole-3-carboxamide]
